Patent EP0565593B1, “REDUCING PESTICIDAL INTERACTIONS IN CROPS” (priority 1990, dated 1992)
Read-outs that look alike come from different tables or passages of the source.

Columns and labels:
Giant foxtail (GIFT) = test: whole plant or invertebrate; format: in vivo
Corn [1] = settings: […]
Velvetleaf (VELE) [2] = format: in vivo, Abutilon theophrasti; settings: […]
Corn [3] = system: Corn
Velvetleaf (VELE) [4] = test: whole plant or invertebrate; format: in vivo, Abutilon theophrasti
Shattercane (SHCA) = format: in vivo; settings: […]
[5] = […], PPI, 13 days after PPI (Table 31)
[6] = observed 9 days later (Table 29)
[7] = observed 9 days later (Table 30)
[8] = observed 7 days after POE (Table 35)
[9] = observed 7 days after POE (Table 36)
[10] = […], PPI, 14 days after PPI (Table 34)
[11] = observed 8 days later (Table 32)
[12] = observed 8 days later (Table 33)

SMILES: CC1(C)OC(c2cccnc2)CN1C(=O)C(Cl)Cl (stereo not drawn) [compound 27]
- % Inhibition GIFT (Giant foxtail (GIFT); [5]): 75%
- % Inhibition Corn (Corn [1]; [6]): 25%
- % Inhibition Corn (Corn [1]; [7]): 30%
- % Inhibition VELE (Velvetleaf (VELE) [2]; [6]): 85%
- % Inhibition VELE (Velvetleaf (VELE) [2]; [7]): 75%
- % Inhibition Corn (Corn [3]; [5]): 30%
- % Inhibition VELE (Velvetleaf (VELE) [4]; [5]): 85%
- % Inhibition SHCA (Shattercane (SHCA); [6]): 75%
- % Inhibition SHCA (Shattercane (SHCA); [7]): 30%

SMILES: O=C(O)c1sc(Cl)nc1C(F)(F)F [compound 68]
- % Inhibition GIFT (Giant foxtail (GIFT); in vivo): 65%
- % Inhibition Corn (Corn [1]; [8]): 25%
- % Inhibition Corn (Corn [1]; [9]): 65%
- % Inhibition VELE (Velvetleaf (VELE) [2]; [8]): 85%
- % Inhibition VELE (Velvetleaf (VELE) [2]; [9]): 60%
- % Inhibition Corn (Corn [3]; in vivo): 45%
- % Inhibition VELE (Velvetleaf (VELE) [4]; in vivo): 80%
- % Inhibition SHCA (Shattercane (SHCA); [8]): 70%
- % Inhibition SHCA (Shattercane (SHCA); [9]): 45%

SMILES: CC(C)CC1c2ccccc2CCN1C(=O)C(Cl)Cl (stereo not drawn) [compound 41]
- % Inhibition GIFT (Giant foxtail (GIFT); [5]): 90%
- % Inhibition Corn (Corn [1]; [6]): 25%
- % Inhibition Corn (Corn [1]; [7]): 45%
- % Inhibition VELE (Velvetleaf (VELE) [2]; [6]): 90%
- % Inhibition VELE (Velvetleaf (VELE) [2]; [7]): 70%
- % Inhibition Corn (Corn [3]; [5]): 60%
- % Inhibition VELE (Velvetleaf (VELE) [4]; [5]): 80%
- % Inhibition SHCA (Shattercane (SHCA); [6]): 80%
- % Inhibition SHCA (Shattercane (SHCA); [7]): 30%

SMILES: O=C(O)COC(c1ccccc1)c1cccc(C(F)(F)F)c1 (stereo not drawn) [compound 49]
- % Inhibition GIFT (Giant foxtail (GIFT); [10]): 65%
- % Inhibition Corn (Corn [1]; [11]): 45%
- % Inhibition Corn (Corn [1]; [12]): 70%
- % Inhibition VELE (Velvetleaf (VELE) [2]; [11]): 90%
- % Inhibition VELE (Velvetleaf (VELE) [2]; [12]): 80%
- % Inhibition Corn (Corn [3]; [10]): 55%
- % Inhibition VELE (Velvetleaf (VELE) [4]; [10]): 100%
- % Inhibition SHCA (Shattercane (SHCA); [11]): 70%
- % Inhibition SHCA (Shattercane (SHCA); [12]): 30%

SMILES: NC(=S)COC(c1ccccc1)c1ccccc1 [compound 46]
- % Inhibition GIFT (Giant foxtail (GIFT); [10]): 60%
- % Inhibition Corn (Corn [1]; [11]): 50%
- % Inhibition Corn (Corn [1]; [12]): 55%
- % Inhibition VELE (Velvetleaf (VELE) [2]; [11]): 90%
- % Inhibition VELE (Velvetleaf (VELE) [2]; [12]): 70%
- % Inhibition Corn (Corn [3]; [10]): 65%
- % Inhibition VELE (Velvetleaf (VELE) [4]; [10]): 85%
- % Inhibition SHCA (Shattercane (SHCA); [11]): 70%
- % Inhibition SHCA (Shattercane (SHCA); [12]): 25%

SMILES: N#CCCOC(=O)COC(c1ccccc1)c1ccccc1 [compound 52]
- % Inhibition GIFT (Giant foxtail (GIFT); [10]): 65%
- % Inhibition Corn (Corn [1]; [11]): 20%
- % Inhibition Corn (Corn [1]; [12]): 45%
- % Inhibition VELE (Velvetleaf (VELE) [2]; [11]): 85%
- % Inhibition VELE (Velvetleaf (VELE) [2]; [12]): 75%
- % Inhibition Corn (Corn [3]; [10]): 40%
- % Inhibition VELE (Velvetleaf (VELE) [4]; [10]): 85%
- % Inhibition SHCA (Shattercane (SHCA); [11]): 70%
- % Inhibition SHCA (Shattercane (SHCA); [12]): 25%

SMILES: C[n+]1cccc(C2CN(C(=O)C(Cl)Cl)C(C)(C)O2)c1 (stereo not drawn) [compound 37]
- % Inhibition GIFT (Giant foxtail (GIFT); [5]): 80%
- % Inhibition Corn (Corn [1]; [6]): 65%
- % Inhibition Corn (Corn [1]; [7]): 50%
- % Inhibition VELE (Velvetleaf (VELE) [2]; [6]): 90%
- % Inhibition VELE (Velvetleaf (VELE) [2]; [7]): 75%
- % Inhibition Corn (Corn [3]; [5]): 60%
- % Inhibition VELE (Velvetleaf (VELE) [4]; [5]): 85%
- % Inhibition SHCA (Shattercane (SHCA); [6]): 80%
- % Inhibition SHCA (Shattercane (SHCA); [7]): 35%

SMILES: O=C(C(Cl)Cl)N1CCCC12CCCC2 [compound 19]
- % Inhibition GIFT (Giant foxtail (GIFT); [5]): 75%
- % Inhibition GIFT (Giant foxtail (GIFT); [10]): 65%
- % Inhibition Corn (Corn [1]; [12]): 55%
- % Inhibition Corn (Corn [1]; [6]): 20%
- % Inhibition Corn (Corn [1]; [7]): 35%
- % Inhibition VELE (Velvetleaf (VELE) [2]; [12]): 70%
- % Inhibition VELE (Velvetleaf (VELE) [2]; [6]): 95%
- % Inhibition VELE (Velvetleaf (VELE) [2]; [7]): 70%
- % Inhibition Corn (Corn [3]; [5]): 55%
- % Inhibition Corn (Corn [3]; [10]): 35%
- % Inhibition VELE (Velvetleaf (VELE) [4]; [5]): 80%
- % Inhibition VELE (Velvetleaf (VELE) [4]; [10]): 90%
- % Inhibition SHCA (Shattercane (SHCA); [12]): 30%
- % Inhibition SHCA (Shattercane (SHCA); [6]): 80%
- % Inhibition SHCA (Shattercane (SHCA); [7]): 30%
